Experimental data reported in US6946137B2, “Methods for the controlled delivery of pharmacologically active compounds” (IDEXX Laboratories, Inc., priority 2001, dated 2005).
Counter-ions that a name gives are not always drawn. Like-named read-outs stand apart in the source and are kept apart here.

Assays:
[1] = in vitro release from dialysis bag into saline; format: physicochemical
[2] = stated as background, no test described, cited from earlier work
cats = details: previous data; cited from earlier work

SMILES	solubility in water / aqueous solutions (in words), known forms [2]	other results
CNCCC(Oc1ccc(C(F)(F)F)cc1)c1ccccc1 (centres unmarked) [fluoxetine base formulation, Fluoxetine]	–	time over which the formulation was released in vitro ([1]; 100 mg/ml in 10% propylene glycol in glycerol formal, dialysis technique): about 160 hrs
CN(C)C1C(O)=C(C(N)=O)C(=O)[C@@]2(O)C(O)=C3C(=O)c4c(O)cccc4[C@@](C)(O)C3C(O)C12 (some centres unmarked) [hydrochloride salt of oxytetracycline, Oxytetracycline]	readily soluble in water	–
COCCc1ccc(OCC(O)CNC(C)C)cc1 (centres unmarked) [metoprolol base, Metoprolol]	–	in vitro release rate (in words) ([1]; dialysis bag into saline): diffused off rapidly
COCCc1ccc(OCC(O)CNC(C)C)cc1 (centres unmarked) [metoprolol succinate, Metoprolol]	highly soluble in water	–
CC[C@H]1OC(=O)C[C@@H](O)[C@H](C)[C@@H](OC2OC(C)C(O)C(N(C)C)C2O)[C@@H](CCN2C[C@@H](C)C[C@H](C)C2)C[C@@H](C)C(=O)/C=C/C(C)=C/[C@@H]1COC1OC(C)C(O)C(OC)C1OC (some centres unmarked) [phosphate salt of tilmicosin, Tilmicosin]	–	dosage that could be fatal to cats (cats): 25 mg/kg; solubility in water / aqueous solutions (in words), known forms ([2]; listed as tilmicosin phosphate salt): highly soluble
CC[C@H]1OC(=O)C[C@@H](O)[C@H](C)[C@@H](OC2OC(C)C(O)C(N(C)C)C2O)[C@@H](CCN2C[C@@H](C)C[C@H](C)C2)C[C@@H](C)C(=O)/C=C/C(C)=C/[C@@H]1COC1OC(C)C(O)C(OC)C1OC (some centres unmarked) [tilmicosin basic form, Tilmicosin]	moderately soluble	–
CC[C@H]1OC(=O)C[C@@H](O)[C@H](C)[C@@H](OC2OC(C)C(O)C(N(C)C)C2O)[C@@H](CCN2C[C@@H](C)C[C@H](C)C2)C[C@@H](C)C(=O)/C=C/C(C)=C/[C@@H]1COC1OC(C)C(O)C(OC)C1OC (some centres unmarked) [tilmicosin chloride salt, Tilmicosin]	highly soluble	–
